Measured values: publication PMC12856317, “A reversible feedback mechanism regulating mitochondrial heme synthesis” (The Journal of Biological Chemistry, 2025)

How the values were obtained:
Type in all cases: biochemical
[1] = target: T1, holoALAS2 ΔC (residues 54–547) (Homo sapiens, UniProt P22557); experiment: Colorimetric ALA release activity assay, hemin inhibition of holoenzyme
T1 construct: a truncation without the C-terminal CXXC motif (ΔC, residues 54–547); His6-SUMO (N, cleaved yes); made in house; host or cells: Escherichia coli BL21-Codon Plus (DE3)-RIL
T1 sequence (P22557 54-547): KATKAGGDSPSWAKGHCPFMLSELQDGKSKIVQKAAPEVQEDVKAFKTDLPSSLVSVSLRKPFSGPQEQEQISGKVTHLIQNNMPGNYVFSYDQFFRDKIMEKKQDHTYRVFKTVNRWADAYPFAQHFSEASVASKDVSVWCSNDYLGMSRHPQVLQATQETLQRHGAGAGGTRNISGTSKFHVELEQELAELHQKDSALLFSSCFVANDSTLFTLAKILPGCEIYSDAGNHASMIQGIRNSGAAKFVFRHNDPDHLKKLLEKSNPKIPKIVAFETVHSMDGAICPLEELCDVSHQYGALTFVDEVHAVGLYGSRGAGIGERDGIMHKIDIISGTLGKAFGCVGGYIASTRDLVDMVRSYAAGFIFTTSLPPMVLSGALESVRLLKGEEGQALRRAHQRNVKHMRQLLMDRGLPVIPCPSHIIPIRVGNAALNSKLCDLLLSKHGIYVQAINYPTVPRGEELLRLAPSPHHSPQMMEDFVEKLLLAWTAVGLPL
Experimental: (§1) A discontinuous colorimetric activity assay adapted from Shoolingin-Jordan et al. and Bailey et al. was used to measure the enzyme activity ([48], [74]). The reaction was initiated by adding 100 nM purified enzyme to 50 mM potassium phosphate, pH 7.0, 10 mM MgCl2, 1 mM DTT, 100 mM glycine, and 300 μM succinyl-CoA (175 μl total). The reaction was incubated at 37 °C for 15 min and terminated with 100 μl of cold 10% trichloroacetic acid. The precipitated protein was removed by centrifugation for 5 min at 13,000g, and 240 μl of the supernatant was mixed with 240 μl of 1 M sodium acetate, pH 4.6. To derivatize ALA, 20 μl of acetylacetone was added to the mixture and boiled at 100 °C for 10 min. After the sample was cooled for 20 min, 100 μl aliquots were transferred into a clear 96-well plate in triplicate. An equal volume of Ehrlich’s reagent (p-Dimethylaminobenzaldehyde, DMAB) was added to each well, and the absorbance was monitored at 553 nm using a microplate reader (Thermo Fisher Scientific). The peak absorbance value was converted to molar ALA concentration using ε553 = 60,400 M^−1 cm^−1.
(§2) Inhibition of enzyme activity was determined by titrating hemin (0.1 μM–60 μM) into the substrate mixture before initiating the reaction upon enzyme addition. Hemin was dissolved in 100% dimethyl sulfoxide (DMSO) (ε403 nm = 170,000 M^−1 cm^−1) and serially diluted in 100% DMSO to prepare stock solutions for each concentration. The final DMSO concentration in the reaction mixture was 2%. All experiments were performed with a minimum of three biological replicates, each with three technical replicates. Data were fitted using nonlinear regression to generate an inhibitor dose-response curve (IC50) or an agonist dose-response curve (EC50), and statistical significance was determined using a one-way ANOVA with GraphPad Prism 10.

[2] = target: T2, WT holoALAS2 (residues 54–587) (Homo sapiens, UniProt P22557); experiment: as above; conditions: 0.1 μM–60 μM hemin titrated into holoALAS2, rate of ALA release
T2 construct: His6-SUMO (N, cleaved yes); made in house; host or cells: Escherichia coli BL21-Codon Plus (DE3)-RIL
T2 sequence (P22557 54-587): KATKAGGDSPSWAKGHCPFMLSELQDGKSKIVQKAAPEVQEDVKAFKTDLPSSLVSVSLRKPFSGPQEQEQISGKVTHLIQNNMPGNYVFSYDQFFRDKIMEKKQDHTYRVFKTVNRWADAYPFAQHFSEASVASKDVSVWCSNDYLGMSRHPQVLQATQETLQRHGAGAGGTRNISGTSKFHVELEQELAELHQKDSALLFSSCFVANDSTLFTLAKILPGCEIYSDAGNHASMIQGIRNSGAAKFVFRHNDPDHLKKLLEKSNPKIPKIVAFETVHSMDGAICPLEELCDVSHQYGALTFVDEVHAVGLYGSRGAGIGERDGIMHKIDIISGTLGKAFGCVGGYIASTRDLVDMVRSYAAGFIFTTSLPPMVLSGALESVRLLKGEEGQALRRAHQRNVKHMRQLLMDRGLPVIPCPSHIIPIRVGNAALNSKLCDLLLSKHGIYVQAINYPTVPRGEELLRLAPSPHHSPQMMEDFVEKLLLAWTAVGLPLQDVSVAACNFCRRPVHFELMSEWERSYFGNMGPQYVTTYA
Experimental: as §1, §2

[3] = target: T2, WT holoALAS2 (residues 54–587); experiment: Succinyl-CoA:hemin competition analysis; conditions: WT holoenzyme
Experimental: as §1
For inhibitor competition experiments, the apoenzymes were preincubated with hemin or PLP (0–100 μM) for 15 min at 25 °C in the dark before initiating the reaction. Next, either PLP or hemin (0–100 μM) was titrated into the reactions to measure enzyme activation after hemin inhibition or enzyme inhibition of the PLP-treated apoenzyme, respectively. For succinyl-CoA:hemin competition analyses, the WT holoenzyme was mixed with hemin (0, 25, 50, and 100 μM), followed by the addition of increasing succinyl-CoA concentrations (0, 25, 50, 100, 250, and 500 μM). All experiments were performed with a minimum of three biological replicates, each with three technical replicates. Data were fit using nonlinear regression to generate an agonist dose-response curve (EC50) or an inhibitor dose-response curve (IC50). Lineweaver-Burk analysis was performed using the resulting kinetic parameters (Vmax and KM) in GraphPad Prism 10.

IC50 ([1]; 0.1 μM–60 μM hemin titrated into holoenzyme): 31.3 ± 0.8 µM
residual enzyme activity, of basal activity ([1]; 100-fold excess heme): ~25%
IC50 [2]: 18.7 ± 0.5 µM
fold lower Vmax ([3]; heme versus no heme, varied succinyl-CoA): 8 fold
mode of inhibition ([3]; varied succinyl-CoA and heme): uncompetitively
Substance: ferric chloride heme [hemin]
